The record followed here is US8772307B2, “Substituted spiro compounds and their use for producing pain-relief medicaments” (Gruenenthal GmbH, priority 2005, dated 2014).

As usually defined, the IC50 is the concentration at which inhibition is half-maximal. A high value points to weaker potency. A word on the inhibition: it is the change of the read-out against control, counted positive when it falls.

The target in assay [1] is T1, rat-species vanilloid receptor 1 (VR1/TRPV1) (Rattus norvegicus, UniProt O35433).
T1 construct: endogenous in cells; host or cells: primary cells dissociated from rat dorsal root ganglia (DRG)
T1 sequence (O35433 whole entry): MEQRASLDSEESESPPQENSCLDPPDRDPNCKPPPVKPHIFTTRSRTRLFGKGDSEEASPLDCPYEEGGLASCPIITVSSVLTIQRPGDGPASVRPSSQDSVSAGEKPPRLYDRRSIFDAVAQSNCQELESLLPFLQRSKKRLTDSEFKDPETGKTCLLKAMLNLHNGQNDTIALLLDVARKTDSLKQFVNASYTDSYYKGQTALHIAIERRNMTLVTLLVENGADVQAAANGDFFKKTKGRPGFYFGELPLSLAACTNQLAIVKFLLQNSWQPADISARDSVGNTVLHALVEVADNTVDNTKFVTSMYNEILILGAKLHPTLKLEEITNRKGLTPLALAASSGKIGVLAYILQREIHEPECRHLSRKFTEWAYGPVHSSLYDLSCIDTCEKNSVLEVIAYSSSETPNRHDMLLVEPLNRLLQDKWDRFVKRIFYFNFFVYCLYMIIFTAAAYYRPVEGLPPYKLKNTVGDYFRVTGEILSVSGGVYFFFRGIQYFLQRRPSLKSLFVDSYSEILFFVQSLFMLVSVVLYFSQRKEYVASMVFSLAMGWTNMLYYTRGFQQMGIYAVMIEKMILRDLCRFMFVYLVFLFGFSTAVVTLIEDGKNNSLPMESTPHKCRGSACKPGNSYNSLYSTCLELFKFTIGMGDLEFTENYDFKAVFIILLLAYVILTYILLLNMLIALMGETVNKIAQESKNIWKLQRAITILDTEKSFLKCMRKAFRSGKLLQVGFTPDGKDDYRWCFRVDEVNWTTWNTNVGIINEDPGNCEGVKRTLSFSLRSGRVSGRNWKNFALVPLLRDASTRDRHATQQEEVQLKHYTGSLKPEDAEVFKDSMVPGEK
Nature of the assay: Functional testing on vanilloid receptor 1 (VR1/TRPV1): FLIPR Ca2+ inflow assay in rat dorsal root ganglia cells (% activation / % inhibition vs capsaicin). Format: cell-based. Conditions: for IC50: capsaicin (CAP) stimulus, average; for inhibition at 10 µM: inhibition compared to 10 μM CP (capsaicin); for activation at 10 µM: stimulation compared to 10 μM CP (capsaicin). The method, then:
Preference may also be given to substituted spiro compounds according to the invention of general formula I which in a FLIPR assay in a concentration of 10 μM display inhibition of the Ca^2+ ion inflow in dorsal root ganglia of rats of at least 30%, preferably of at least 40%, particularly preferably of at least 50%, most particularly preferably of at least 70%, even more preferably of at least 90%, compared to the maximum achievable inhibition of the Ca^2+ ion inflow with capsaicin in a concentration of 10 μM.
In the FLIPR assay, the Ca^2+ inflow is quantified using a Ca^2+-sensitive dye (type Fluo-4, Molecular Probes Europe BV, Leiden, Netherlands) in a fluorescent imaging plate reader (FLIPR, Molecular Devices, Sunnyvale, USA), as described hereinafter.
I. Functional Testing Carried Out on the Vanilloid Receptor 1 (VR1/TRPV1 Receptor)
The agonistic or antagonistic effect of the substances to be tested can be determined on the rat-species vanilloid receptor 1 (VR1/TRPV1) using the following assay. According to this assay, the Ca^2+ inflow is quantified through the receptor channel using a Ca^2+-sensitive dye (type Fluo-4, Molecular Probes Europe BV, Leiden, Netherlands) in a fluorescent imaging plate reader (FLIPR, Molecular Devices, Sunnyvale, USA).
Complete medium: 50 mL HAMS F12 nutrient mixture (Gibco Invitrogen GmbH, Karlsruhe, Germany) with
10% by volume of FCS (foetal calf serum, Gibco Invitrogen GmbH, Karlsruhe, Germany, […]);
2 mM L-glutamine (Sigma, Munich, Germany);
1% by weight of AA solution (antibiotic/antimyotic solution, PAA, Pasching, Austria)
and 25 ng/ml NGF medium (2.5 S, Gibco Invitrogen GmbH, Karlsruhe, Germany)
Cell culture plate: Poly-D-lysine-coated, black 96 well plates having a clear base (96 well black/clear plate, BD Biosciences, Heidelberg, Germany) were additionally coated with laminin (Gibco Invitrogen GmbH, Karlsruhe, Germany), the laminin being diluted with PBS (Ca—Mg-free PBS, Gibco Invitrogen GmbH, Karlsruhe, Germany) to a concentration of 100 μg/mL. Aliquots having a laminin concentration of 100 μg/mL were removed and stored at −20° C. The aliquots were diluted with PBS in a ratio of 1:10 to 10 μg/mL laminin and in each case 50 μL of the solution were pipetted into a recess in the cell culture plate. The cell culture plates were incubated for at least two hours at 37° C., the excess solution was removed by suction-filtration and the recesses were each washed twice with PBS. The coated cell culture plates were stored with excess PBS which was not removed until just before the feeding of the cells.
Preparation of the Cells:
The vertebral column was removed from decapitated rats and placed immediately into cold HBSS buffer (Hank's buffered saline solution, Gibco Invitrogen GmbH, Karlsruhe, Germany), i.e. buffer located in an ice bath, mixed with 1% by volume (percent by volume) of an AA solution (antibiotic/antimyotic solution, PAA, Pasching, Austria). The vertebral column was cut longitudinally and removed together with fasciae from the vertebral canal. Subsequently, the dorsal root ganglia (DRG) were removed and again stored in cold HBSS buffer mixed with 1% by volume of an AA solution. The DRG, from which all blood remnants and spinal nerves had been removed, were transferred in each case to 500 μL of cold type 2 collagenase (PAA, Pasching, Austria) and incubated for 35 minutes at 37° C. After the addition of 2.5% by volume of trypsin (PAA, Pasching, Austria), incubation was continued for 10 minutes at 37° C. After complete incubation, the enzyme solution was carefully pipetted off and 500 μL of complete medium were added to each of the remaining DRG. The DRG were in each case suspended several times, drawn through cannulae No. 1, No. 12 and No. 16 using a syringe and transferred to a 50 mL Falcon tube which was filled up to 15 mL with complete medium. […]

The target of the next assay is T2, vanilloid receptor (VR1) (Homo sapiens, UniProt Q8NER1).
T2 construct: expressed in transfected cells; host or cells: CHO K1 cells (ECACC), stably transfected
T2 sequence (Q8NER1 whole entry): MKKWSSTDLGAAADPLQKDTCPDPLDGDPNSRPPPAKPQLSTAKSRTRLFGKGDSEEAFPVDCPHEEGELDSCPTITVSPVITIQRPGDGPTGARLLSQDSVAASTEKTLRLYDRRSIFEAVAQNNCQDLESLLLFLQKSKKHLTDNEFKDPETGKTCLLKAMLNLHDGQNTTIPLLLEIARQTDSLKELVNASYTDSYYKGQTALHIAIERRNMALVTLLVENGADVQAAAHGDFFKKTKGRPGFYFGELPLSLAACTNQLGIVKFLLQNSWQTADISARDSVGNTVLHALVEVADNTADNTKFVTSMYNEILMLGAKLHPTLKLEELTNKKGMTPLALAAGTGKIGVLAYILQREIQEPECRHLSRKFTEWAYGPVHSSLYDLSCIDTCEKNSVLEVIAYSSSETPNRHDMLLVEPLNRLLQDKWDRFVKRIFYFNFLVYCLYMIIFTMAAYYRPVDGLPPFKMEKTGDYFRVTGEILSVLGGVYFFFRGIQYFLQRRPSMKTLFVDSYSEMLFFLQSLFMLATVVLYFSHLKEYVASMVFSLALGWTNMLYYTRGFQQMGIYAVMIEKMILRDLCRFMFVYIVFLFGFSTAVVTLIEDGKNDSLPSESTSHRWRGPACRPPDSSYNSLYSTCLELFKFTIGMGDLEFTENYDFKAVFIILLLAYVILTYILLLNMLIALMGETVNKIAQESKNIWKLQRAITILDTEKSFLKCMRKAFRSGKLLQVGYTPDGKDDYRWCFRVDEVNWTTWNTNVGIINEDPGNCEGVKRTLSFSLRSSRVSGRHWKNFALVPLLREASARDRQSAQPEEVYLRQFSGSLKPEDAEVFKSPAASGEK
Nature of the assay: Functional testing on vanilloid receptor (VR1): FLIPR Ca2+ inflow assay in CHO K1 cells stably transfected with the VR1 gene. Conditions: for inhibition at 10 µM: CHO-K1, inhibition compared to 10 μM CP (capsaicin); for activation at 10 µM: CHO-K1, stimulation compared to 10 μM CP (capsaicin); for IC50: capsaicin (CAP) stimulus, average. Format: cell-based. From the text:
II. Functional Testing Carried Out on the Vanilloid Receptor (VR1)
The agonistic or antagonistic effect of the substances to be tested can also be determined on the vanilloid receptor (VR1) using the following assay. According to this assay, the Ca^2+ inflow is quantified through the channel using a Ca^2+-sensitive dye (type Fluo-4, Molecular Probes Europe BV, Leiden, Netherlands) in a fluorescent imaging plate reader (FLIPR, Molecular Devices, Sunnyvale, USA).
Chinese hamster ovary cells (CHO K1 cells, European Collection of Cell Cultures (ECACC) United Kingdom) were stably transfected with the VR1 gene. For functional testing, these cells were plated out on poly-D-lysine-coated black 96 well plates having a clear base (BD Biosciences, Heidelberg, Germany) at a density of 25,000 cells/well. The cells were incubated overnight at 37° C. and 5% CO2 in a culture medium (Ham's F12 nutrient mixture, 10% by volume of FCS (foetal calf serum), 18 μg/ml L-proline). The next day the cells were incubated with Fluo-4 (Fluo-4 2 μM, 0.01% by volume of Pluronic F127, Molecular Probes in HBSS (Hank's buffered saline solution), Gibco Invitrogen GmbH, Karlsruhe, Germany) for 30 minutes at 37° C. Subsequently, the plates were washed 3 times with HBSS buffer and after further incubation for 15 minutes at room temperature used for Ca^2+ measurement in a FLIPR assay. The Ca^2+-dependent fluorescence was measured before and after the addition of the substances to be tested (λex wavelength=488 nm, λem=540 nm). Quantification was carried out by measuring the highest fluorescence intensity (FC, Fluorescence Counts) over time.
The FLIPR protocol consists of 2 substance additions. First the compounds to be tested (10 μM) were pipetted onto the cells and the Ca^2+ inflow was compared with the control (capsaicin 10 μM) (% activation based on the Ca^2+ signal after the addition of 10 μM capsaicin). After 5 minutes' incubation, 100 nM of capsaicin were administered and the Ca^2+ inflow was also determined.
Desensitising agonists and antagonists led to suppression of the Ca^2+ inflow. The % inhibition was calculated compared to the maximum achievable inhibition with 10 μM of capsaicin.

As to `CC1CN(C(=O)Nc2ccc(C(C)(C)C)cc2)CCC12CC(c1ccccc1)=NO2` (stereo not shown) [Compound 369, N-(4-tert-butylphenyl)-6-methyl-3-phenyl-1-oxa-2,8-diazaspiro[4.5]dec-2-ene-8-carboxamide], in assay [1], the half-maximal inhibitory concentration (IC50) is 175 nM, the inhibition at 10 µM amounted to 110% and the activation at 10 µM turned out to be 0%. Further, on vanilloid receptor (VR1), the inhibition at 10 µM was 19%, the activation at 10 µM is -1% and the IC50 was 1070 nM.
In the case of `CC(C)(C)c1ccc(NC(=O)N2CCC3(CC2)CC(c2ccc(C(C)(C)C)cc2)=NO3)cc1` [Compound 143, 3-(4-tert-butylphenyl)-1-oxa-2,8-diazaspiro[4.5]dec-2-ene-8-carboxylic acid-(4-tert-butylphenyl)amide], in assay [1], the inhibition at 10 µM was determined as 45.7% and the activation at 10 µM is -0.33%. On vanilloid receptor (VR1), the inhibition at 10 µM is -7.17% and the activation at 10 µM was found to be 4.12%.
As for `CC(C)(C)c1ccc(NC(=O)N2CCC3(CC2)CC(c2cccc(F)c2)=NO3)cc1` [Compound 351, N-(4-tert-butylphenyl)-3-(3-fluorophenyl)-1-oxa-2,8-diazaspiro[4.5]dec-2-ene-8-carboxamide], in assay [1], the inhibition at 10 µM came to 101% and the activation at 10 µM was determined as 6%. On vanilloid receptor (VR1), the inhibition at 10 µM was 83% and the activation at 10 µM came out at 3%.
Turning to `COc1ccccc1NC(=O)N1CCC2(CC1)CC(c1ccc(C(C)(C)C)cc1)=NO2` [Compound 201, 3-(4-tert-butylphenyl)-1-oxa-2,8-diazaspiro[4.5]dec-2-ene-8-carboxylic acid-(2-methoxyphenyl)amide], the inhibition at 10 µM was 54.2% in assay [1] and -0.7% against vanilloid receptor (VR1). The activation at 10 µM in assay [1] was -0.43%; on vanilloid receptor (VR1), 8.56%.
In the case of `COc1cccc(NC(=O)N2CCC3(CC2)CC(c2ccccc2)=NO3)c1` [Compound 205, 3-phenyl-1-oxa-2,8-diazaspiro[4.5]dec-2-ene-8-carboxylic acid-(3-methoxyphenyl)amide], the inhibition at 10 µM in assay [1] was 39.9%; against vanilloid receptor (VR1), -23.9%. The activation at 10 µM stood at 0.15% in assay [1] and 0.33% on vanilloid receptor (VR1).
As for `Cc1ccc(C2=NOC3(CCN(C(=S)NC4CCCC4)CC3)C2)cc1` [Compound 290, 3-p-tolyl-1-oxa-2,8-diazaspiro[4.5]dec-2-ene-8-thiocarboxylic acid cyclopentylamide], the inhibition at 10 µM in assay [1] is 48.4%; against vanilloid receptor (VR1), -7.84%. The activation at 10 µM in assay [1] was -0.47%; at vanilloid receptor (VR1), -0.28%.
`CC(C)(C)c1ccc(/C(=C/C(=O)N2CCC3(CC2)CC(c2ccccc2F)=NO3)c2ccc(Cl)c(Cl)c2)cc1` [Compound 359, (Z)-3-(4-tert-butylphenyl)-3-(3,4-dichlorophenyl)-1-(3-(2-fluorophenyl)-1-oxa-2,8-diazaspiro[4.5]dec-2-en-8-yl)prop-2-en-1-one]: in assay [1], the inhibition at 10 µM came to 57% and the activation at 10 µM came to 3%. Also, at vanilloid receptor (VR1), the inhibition at 10 µM was determined as 26% and the activation at 10 µM was found to be 0%.
`CC(C)c1ccc(NC(=O)N2CCC3(CC2)CC(c2ccccc2)=NO3)cc1` [Compound 78, 3-phenyl-1-oxa-2,8-diazaspiro[4.5]dec-2-ene-8-carboxylic acid-(4-isopropylphenyl)amide]: in assay [1], the inhibition at 10 µM is 95% and the activation at 10 µM amounted to 0.02%. Also, at vanilloid receptor (VR1), the inhibition at 10 µM turned out to be 11.8% and the activation at 10 µM turned out to be 0.11%.
On to `COc1ccc(NC(=O)N2CCC3(CC2)CC(c2cccc(OC)c2)=NO3)cc1` [Compound 47, 3-(3-methoxyphenyl)-1-oxa-2,8-diazaspiro[4.5]dec-2-ene-8-carboxylic acid-(4-methoxyphenyl)amide], for which the inhibition at 10 µM in assay [1] was 48.3%; on vanilloid receptor (VR1), 11.4%. The activation at 10 µM in assay [1] turned out to be 0.92%; on vanilloid receptor (VR1), 0.01%.
`O=C(C=Cc1ccc(C(F)(F)F)cc1)N1CCC2(CC1)CC(c1ccccc1)=NO2` [Compound 314, 1-(3-phenyl-1-oxa-2,8-diazaspiro[4.5]dec-2-en-8-yl)-3-(4-trifluoromethylphenyl)propenone]: in assay [1], the IC50 came to 150 nM, the inhibition at 10 µM is 82% and the activation at 10 µM was -6%. Moreover, on vanilloid receptor (VR1), the inhibition at 10 µM was 6%, the activation at 10 µM was determined as 0% and 825 nM corresponded to half-maximal inhibition (IC50).
Take `CC(C)c1ccc(C=CC(=O)N2CCC3(CC2)CC(c2ccccc2)=NO3)cc1` [Compound 325, 3-(4-isopropylphenyl)-1-(3-phenyl-1-oxa-2,8-diazaspiro[4.5]dec-2-en-8-yl)propenone]: in assay [1], the midpoint of inhibition, the IC50, lay at 270 nM; the inhibition at 10 µM came to 63%; the activation at 10 µM is -6%. On vanilloid receptor (VR1), the inhibition at 10 µM was 6%, the activation at 10 µM was 0% and the IC50 worked out at 875 nM.
As for `O=C(Nc1ccc(OC(F)(F)F)cc1)N1CCC2(CC1)CC(c1ccccc1)=NO2` [Compound 245, 3-phenyl-1-oxa-2,8-diazaspiro[4.5]dec-2-ene-8-carboxylic acid-(4-trifluoromethoxyphenyl)amide], in assay [1], the inhibition at 10 µM is 99% and the activation at 10 µM came out at 2.55%. At vanilloid receptor (VR1), the inhibition at 10 µM amounted to 11% and the activation at 10 µM was determined as 0.28%.
For `CCc1ccc(NC(=O)N2CCC3(CC2)CC(c2ccc(C(F)(F)F)cc2)=NO3)cc1` [Compound 167, 3-(4-trifluoromethylphenyl)-1-oxa-2,8-diazaspiro[4.5]dec-2-ene-8-carboxylic acid-(4-ethylphenyl)amide], in assay [1], the inhibition at 10 µM turned out to be 47.4% and the activation at 10 µM is -0.43%. Further, on vanilloid receptor (VR1), the inhibition at 10 µM was 17.5% and the activation at 10 µM is 0.06%.
